Measurements: PubChem BioAssay (NCI)
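Test compounds were applied to cells in 96-well plates for 48 hours at 5 doses. TGI is the concentration that stops growth completely.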

Each molecule was assayed on 786-0 renal (assay: NCI tumour cell line growth inhibition, 48 h).
With `O=c1[nH]cc(N=Cc2cc(Cl)cc(Cl)c2O)c(=O)[nH]1` the TGI was 62.2 µM. `Oc1ccc(-c2nc(-c3cccnc3)c(-c3ccc(F)cc3)[nH]2)cc1` showed a TGI of 59 µM. For `COc1ccc(N2C(=O)C3c4[nH]c5ccccc5c4C4CCC(C(C)(C)C)CC4C3C2=O)c(C)c1` (stereo not drawn), the TGI was greater than 100 µM. `Cc1ccsc1/C=N/Nc1ncccn1` showed a TGI greater than 100 µM. With `O=C1C(=Cc2ccc(O)cc2)N=C(c2ccccc2)N1n1c(-c2ccccc2)nc2ccccc2c1=O` the TGI was greater than 100 µM. In the case of `O=C(O)CSc1ccc([N+](=O)[O-])cc1[N+](=O)[O-]`, the TGI is reported as greater than 100 µM. In the case of `Nc1ccccc1SC(C[N+](=O)[O-])c1ccc2c(c1)OCO2` (stereo not drawn), the TGI is reported as 3.15 µM.

These molecules were tested on A498 renal (assay: NCI tumour cell line growth inhibition, 48 h).
`O=c1[nH]cc(N=Cc2cc(Cl)cc(Cl)c2O)c(=O)[nH]1` showed a TGI greater than 100 µM. In the case of `Cc1ccsc1/C=N/Nc1ncccn1`, the TGI is reported as greater than 100 µM. `O=C(O)CSc1ccc([N+](=O)[O-])cc1[N+](=O)[O-]` showed a TGI greater than 100 µM. In the case of `Nc1ccccc1SC(C[N+](=O)[O-])c1ccc2c(c1)OCO2` (stereo not drawn), the TGI is reported as 20.6 µM.

These molecules were tested on A549 NSCLC (assay: NCI tumour cell line growth inhibition, 48 h).
Molecule `O=c1[nH]cc(N=Cc2cc(Cl)cc(Cl)c2O)c(=O)[nH]1` has a TGI greater than 100 µM. Molecule `Oc1ccc(-c2nc(-c3cccnc3)c(-c3ccc(F)cc3)[nH]2)cc1` has a TGI of 65 µM. In the case of `COc1ccc(N2C(=O)C3c4[nH]c5ccccc5c4C4CCC(C(C)(C)C)CC4C3C2=O)c(C)c1` (stereo not drawn), the TGI is reported as greater than 100 µM. For `Cc1ccsc1/C=N/Nc1ncccn1`, the TGI was greater than 100 µM. `O=C1C(=Cc2ccc(O)cc2)N=C(c2ccccc2)N1n1c(-c2ccccc2)nc2ccccc2c1=O` gave a TGI greater than 100 µM. `O=C(O)CSc1ccc([N+](=O)[O-])cc1[N+](=O)[O-]` gave a TGI greater than 100 µM. `Nc1ccccc1SC(C[N+](=O)[O-])c1ccc2c(c1)OCO2` (stereo not drawn) gave a TGI of 8.68 µM.

The molecules below were run on ACHN renal (assay: NCI tumour cell line growth inhibition, 48 h).
Work on `O=c1[nH]cc(N=Cc2cc(Cl)cc(Cl)c2O)c(=O)[nH]1` yielded a TGI of 76.1 µM. Work on `Oc1ccc(-c2nc(-c3cccnc3)c(-c3ccc(F)cc3)[nH]2)cc1` yielded a TGI of 58.5 µM. `COc1ccc(N2C(=O)C3c4[nH]c5ccccc5c4C4CCC(C(C)(C)C)CC4C3C2=O)c(C)c1` (stereo not drawn) gave a TGI greater than 100 µM. Molecule `Cc1ccsc1/C=N/Nc1ncccn1` has a TGI greater than 100 µM. `O=C(O)CSc1ccc([N+](=O)[O-])cc1[N+](=O)[O-]` showed a TGI greater than 100 µM. Work on `Nc1ccccc1SC(C[N+](=O)[O-])c1ccc2c(c1)OCO2` (stereo not drawn) yielded a TGI of 19 µM.

The molecules below were run on BT-549 breast (assay: NCI tumour cell line growth inhibition, 48 h).
For `O=c1[nH]cc(N=Cc2cc(Cl)cc(Cl)c2O)c(=O)[nH]1`, the TGI was 94.9 µM. With `Oc1ccc(-c2nc(-c3cccnc3)c(-c3ccc(F)cc3)[nH]2)cc1` the TGI was 32.6 µM. Work on `COc1ccc(N2C(=O)C3c4[nH]c5ccccc5c4C4CCC(C(C)(C)C)CC4C3C2=O)c(C)c1` (stereo not drawn) yielded a TGI greater than 100 µM. `Cc1ccsc1/C=N/Nc1ncccn1` showed a TGI greater than 100 µM. Molecule `O=C1C(=Cc2ccc(O)cc2)N=C(c2ccccc2)N1n1c(-c2ccccc2)nc2ccccc2c1=O` has a TGI greater than 100 µM. With `O=C(O)CSc1ccc([N+](=O)[O-])cc1[N+](=O)[O-]` the TGI was greater than 100 µM. `Nc1ccccc1SC(C[N+](=O)[O-])c1ccc2c(c1)OCO2` (stereo not drawn) was tested, and the TGI was 15.2 µM.

These molecules were tested on CAKI-1 renal (assay: NCI tumour cell line growth inhibition, 48 h).
With `O=c1[nH]cc(N=Cc2cc(Cl)cc(Cl)c2O)c(=O)[nH]1` the TGI was 57.7 µM. `Oc1ccc(-c2nc(-c3cccnc3)c(-c3ccc(F)cc3)[nH]2)cc1` showed a TGI of 78.6 µM. Work on `COc1ccc(N2C(=O)C3c4[nH]c5ccccc5c4C4CCC(C(C)(C)C)CC4C3C2=O)c(C)c1` (stereo not drawn) yielded a TGI greater than 100 µM. With `Cc1ccsc1/C=N/Nc1ncccn1` the TGI was greater than 100 µM. `O=C1C(=Cc2ccc(O)cc2)N=C(c2ccccc2)N1n1c(-c2ccccc2)nc2ccccc2c1=O` gave a TGI greater than 100 µM. Molecule `O=C(O)CSc1ccc([N+](=O)[O-])cc1[N+](=O)[O-]` has a TGI greater than 100 µM. `Nc1ccccc1SC(C[N+](=O)[O-])c1ccc2c(c1)OCO2` (stereo not drawn) gave a TGI of 26.6 µM.

Each molecule was assayed on CCRF-CEM leukemia (assay: NCI tumour cell line growth inhibition, 48 h).
Work on `O=c1[nH]cc(N=Cc2cc(Cl)cc(Cl)c2O)c(=O)[nH]1` yielded a TGI of 99 µM. Work on `Oc1ccc(-c2nc(-c3cccnc3)c(-c3ccc(F)cc3)[nH]2)cc1` yielded a TGI of 42.1 µM. With `COc1ccc(N2C(=O)C3c4[nH]c5ccccc5c4C4CCC(C(C)(C)C)CC4C3C2=O)c(C)c1` (stereo not drawn) the TGI was greater than 100 µM. Work on `Cc1ccsc1/C=N/Nc1ncccn1` yielded a TGI greater than 100 µM. `O=C1C(=Cc2ccc(O)cc2)N=C(c2ccccc2)N1n1c(-c2ccccc2)nc2ccccc2c1=O` was tested, and the TGI was greater than 100 µM.

Each molecule was assayed on COLO 205 colon (assay: NCI tumour cell line growth inhibition, 48 h).
`O=c1[nH]cc(N=Cc2cc(Cl)cc(Cl)c2O)c(=O)[nH]1` gave a TGI of 57.7 µM. `Oc1ccc(-c2nc(-c3cccnc3)c(-c3ccc(F)cc3)[nH]2)cc1` gave a TGI of 36.8 µM. `COc1ccc(N2C(=O)C3c4[nH]c5ccccc5c4C4CCC(C(C)(C)C)CC4C3C2=O)c(C)c1` (stereo not drawn) showed a TGI greater than 100 µM. Molecule `Cc1ccsc1/C=N/Nc1ncccn1` has a TGI greater than 100 µM. `O=C1C(=Cc2ccc(O)cc2)N=C(c2ccccc2)N1n1c(-c2ccccc2)nc2ccccc2c1=O` gave a TGI greater than 100 µM. `Nc1ccccc1SC(C[N+](=O)[O-])c1ccc2c(c1)OCO2` (stereo not drawn) showed a TGI of 13.7 µM.

These molecules were tested on DU-145 prostate (assay: NCI tumour cell line growth inhibition, 48 h).
Molecule `O=c1[nH]cc(N=Cc2cc(Cl)cc(Cl)c2O)c(=O)[nH]1` has a TGI of 60.4 µM. Work on `Oc1ccc(-c2nc(-c3cccnc3)c(-c3ccc(F)cc3)[nH]2)cc1` yielded a TGI of 63.1 µM. Work on `COc1ccc(N2C(=O)C3c4[nH]c5ccccc5c4C4CCC(C(C)(C)C)CC4C3C2=O)c(C)c1` (stereo not drawn) yielded a TGI greater than 100 µM. With `Cc1ccsc1/C=N/Nc1ncccn1` the TGI was greater than 100 µM. For `O=C1C(=Cc2ccc(O)cc2)N=C(c2ccccc2)N1n1c(-c2ccccc2)nc2ccccc2c1=O`, the TGI was greater than 100 µM. Work on `O=C(O)CSc1ccc([N+](=O)[O-])cc1[N+](=O)[O-]` yielded a TGI greater than 100 µM. Molecule `Nc1ccccc1SC(C[N+](=O)[O-])c1ccc2c(c1)OCO2` (stereo not drawn) has a TGI of 8.77 µM.

What follows are molecules tested on EKVX NSCLC (assay: NCI tumour cell line growth inhibition, 48 h).
With `O=c1[nH]cc(N=Cc2cc(Cl)cc(Cl)c2O)c(=O)[nH]1` the TGI was greater than 100 µM. `Oc1ccc(-c2nc(-c3cccnc3)c(-c3ccc(F)cc3)[nH]2)cc1` was tested, and the TGI was 41.7 µM. `COc1ccc(N2C(=O)C3c4[nH]c5ccccc5c4C4CCC(C(C)(C)C)CC4C3C2=O)c(C)c1` (stereo not drawn) was tested, and the TGI was greater than 100 µM. `Cc1ccsc1/C=N/Nc1ncccn1` showed a TGI greater than 100 µM. For `O=C1C(=Cc2ccc(O)cc2)N=C(c2ccccc2)N1n1c(-c2ccccc2)nc2ccccc2c1=O`, the TGI was greater than 100 µM. `O=C(O)CSc1ccc([N+](=O)[O-])cc1[N+](=O)[O-]` gave a TGI greater than 100 µM. `Nc1ccccc1SC(C[N+](=O)[O-])c1ccc2c(c1)OCO2` (stereo not drawn) showed a TGI of 13.3 µM.

The molecules below were run on HCC-2998 colon (assay: NCI tumour cell line growth inhibition, 48 h).
For `O=c1[nH]cc(N=Cc2cc(Cl)cc(Cl)c2O)c(=O)[nH]1`, the TGI was 95.7 µM. For `Oc1ccc(-c2nc(-c3cccnc3)c(-c3ccc(F)cc3)[nH]2)cc1`, the TGI was 40.3 µM. `COc1ccc(N2C(=O)C3c4[nH]c5ccccc5c4C4CCC(C(C)(C)C)CC4C3C2=O)c(C)c1` (stereo not drawn) showed a TGI greater than 100 µM. `Cc1ccsc1/C=N/Nc1ncccn1` showed a TGI greater than 100 µM. Molecule `O=C1C(=Cc2ccc(O)cc2)N=C(c2ccccc2)N1n1c(-c2ccccc2)nc2ccccc2c1=O` has a TGI greater than 100 µM. In the case of `O=C(O)CSc1ccc([N+](=O)[O-])cc1[N+](=O)[O-]`, the TGI is reported as greater than 100 µM. `Nc1ccccc1SC(C[N+](=O)[O-])c1ccc2c(c1)OCO2` (stereo not drawn) gave a TGI of 3.17 µM.

Each molecule was assayed on HCT-116 colon (assay: NCI tumour cell line growth inhibition, 48 h).
Work on `O=c1[nH]cc(N=Cc2cc(Cl)cc(Cl)c2O)c(=O)[nH]1` yielded a TGI of 43.3 µM. For `Oc1ccc(-c2nc(-c3cccnc3)c(-c3ccc(F)cc3)[nH]2)cc1`, the TGI was 32.9 µM. `COc1ccc(N2C(=O)C3c4[nH]c5ccccc5c4C4CCC(C(C)(C)C)CC4C3C2=O)c(C)c1` (stereo not drawn) showed a TGI greater than 100 µM. With `Cc1ccsc1/C=N/Nc1ncccn1` the TGI was greater than 100 µM. For `O=C1C(=Cc2ccc(O)cc2)N=C(c2ccccc2)N1n1c(-c2ccccc2)nc2ccccc2c1=O`, the TGI was greater than 100 µM. Work on `O=C(O)CSc1ccc([N+](=O)[O-])cc1[N+](=O)[O-]` yielded a TGI greater than 100 µM. Molecule `Nc1ccccc1SC(C[N+](=O)[O-])c1ccc2c(c1)OCO2` (stereo not drawn) has a TGI of 3.71 µM.

The molecules below were run on HCT-15 colon (assay: NCI tumour cell line growth inhibition, 48 h).
In the case of `O=c1[nH]cc(N=Cc2cc(Cl)cc(Cl)c2O)c(=O)[nH]1`, the TGI is reported as greater than 100 µM. `Oc1ccc(-c2nc(-c3cccnc3)c(-c3ccc(F)cc3)[nH]2)cc1` showed a TGI of 64.5 µM. Work on `COc1ccc(N2C(=O)C3c4[nH]c5ccccc5c4C4CCC(C(C)(C)C)CC4C3C2=O)c(C)c1` (stereo not drawn) yielded a TGI greater than 100 µM. `Cc1ccsc1/C=N/Nc1ncccn1` gave a TGI greater than 100 µM. With `O=C1C(=Cc2ccc(O)cc2)N=C(c2ccccc2)N1n1c(-c2ccccc2)nc2ccccc2c1=O` the TGI was greater than 100 µM. For `O=C(O)CSc1ccc([N+](=O)[O-])cc1[N+](=O)[O-]`, the TGI was greater than 100 µM. Work on `Nc1ccccc1SC(C[N+](=O)[O-])c1ccc2c(c1)OCO2` (stereo not drawn) yielded a TGI of 10.3 µM.

These molecules were tested on HL-60(TB) leukemia (assay: NCI tumour cell line growth inhibition, 48 h).
In the case of `O=c1[nH]cc(N=Cc2cc(Cl)cc(Cl)c2O)c(=O)[nH]1`, the TGI is reported as 46.9 µM. In the case of `Oc1ccc(-c2nc(-c3cccnc3)c(-c3ccc(F)cc3)[nH]2)cc1`, the TGI is reported as 52 µM. `COc1ccc(N2C(=O)C3c4[nH]c5ccccc5c4C4CCC(C(C)(C)C)CC4C3C2=O)c(C)c1` (stereo not drawn) was tested, and the TGI was greater than 100 µM. Molecule `Cc1ccsc1/C=N/Nc1ncccn1` has a TGI greater than 100 µM. Molecule `O=C1C(=Cc2ccc(O)cc2)N=C(c2ccccc2)N1n1c(-c2ccccc2)nc2ccccc2c1=O` has a TGI greater than 100 µM. `O=C(O)CSc1ccc([N+](=O)[O-])cc1[N+](=O)[O-]` gave a TGI greater than 100 µM. `Nc1ccccc1SC(C[N+](=O)[O-])c1ccc2c(c1)OCO2` (stereo not drawn) was tested, and the TGI was 4.6 µM.

The molecules below were run on HOP-62 NSCLC (assay: NCI tumour cell line growth inhibition, 48 h).
`O=c1[nH]cc(N=Cc2cc(Cl)cc(Cl)c2O)c(=O)[nH]1` gave a TGI of 57 µM. `Oc1ccc(-c2nc(-c3cccnc3)c(-c3ccc(F)cc3)[nH]2)cc1` gave a TGI of 36.7 µM.
